Source: ChEMBL document CHEMBL5365501, “Brain-penetrant cyanoindane and cyanotetralin inhibitors of G2019S-LRRK2 kinase activity” (Bioorg Med Chem Lett, 2023)

Key:
[1] = biological target: T1, Leucine-rich repeat serine/threonine-protein kinase 2 (Homo sapiens, UniProt Q5S007, G2019S); test: Inhibition of LRRK2 G2019S mutant (unknown origin) using LRRKtide as substrate pre-incubated for 15 min and measured after 1 hrs by HTRF assay
MDR1 (P-gp) = test: Efflux ratio of permeability across basolateral to apical side over apical to basolateral side in dog MDCKII-MDR1 cells; assay type: ADME, cell-based, Canis lupus familiaris; conditions: MDCK-MDR1
[2] = biological target: T1, Leucine-rich repeat serine/threonine-protein kinase 2; test: Inhibition of phosphorylated human LRRK2 G2019S mutant at S935 in human HEK293 cells incubated for 2 hrs; assay type: cell-based
[3] = biological target: T1, Leucine-rich repeat serine/threonine-protein kinase 2; test: Inhibition of human LRRK2 G2019S mutant phosphorylation at S1292 in human HEK293 cells incubated for 2 hrs; assay type: cell-based
[4] = Stability in human liver microsomes assessed as half life at 0.5 uM incubated up to 45 min in the presence of NADPH regenerating system by LC MS/MS analysis; assay type: ADME, Microsome
[5] = Stability in rat liver microsomes assessed as half life at 0.5 uM incubated up to 45 min in the presence of NADPH regenerating system by LC MS/MS analysis; assay type: ADME, Microsome

T1 sequence (Q5S007 whole entry G2019S): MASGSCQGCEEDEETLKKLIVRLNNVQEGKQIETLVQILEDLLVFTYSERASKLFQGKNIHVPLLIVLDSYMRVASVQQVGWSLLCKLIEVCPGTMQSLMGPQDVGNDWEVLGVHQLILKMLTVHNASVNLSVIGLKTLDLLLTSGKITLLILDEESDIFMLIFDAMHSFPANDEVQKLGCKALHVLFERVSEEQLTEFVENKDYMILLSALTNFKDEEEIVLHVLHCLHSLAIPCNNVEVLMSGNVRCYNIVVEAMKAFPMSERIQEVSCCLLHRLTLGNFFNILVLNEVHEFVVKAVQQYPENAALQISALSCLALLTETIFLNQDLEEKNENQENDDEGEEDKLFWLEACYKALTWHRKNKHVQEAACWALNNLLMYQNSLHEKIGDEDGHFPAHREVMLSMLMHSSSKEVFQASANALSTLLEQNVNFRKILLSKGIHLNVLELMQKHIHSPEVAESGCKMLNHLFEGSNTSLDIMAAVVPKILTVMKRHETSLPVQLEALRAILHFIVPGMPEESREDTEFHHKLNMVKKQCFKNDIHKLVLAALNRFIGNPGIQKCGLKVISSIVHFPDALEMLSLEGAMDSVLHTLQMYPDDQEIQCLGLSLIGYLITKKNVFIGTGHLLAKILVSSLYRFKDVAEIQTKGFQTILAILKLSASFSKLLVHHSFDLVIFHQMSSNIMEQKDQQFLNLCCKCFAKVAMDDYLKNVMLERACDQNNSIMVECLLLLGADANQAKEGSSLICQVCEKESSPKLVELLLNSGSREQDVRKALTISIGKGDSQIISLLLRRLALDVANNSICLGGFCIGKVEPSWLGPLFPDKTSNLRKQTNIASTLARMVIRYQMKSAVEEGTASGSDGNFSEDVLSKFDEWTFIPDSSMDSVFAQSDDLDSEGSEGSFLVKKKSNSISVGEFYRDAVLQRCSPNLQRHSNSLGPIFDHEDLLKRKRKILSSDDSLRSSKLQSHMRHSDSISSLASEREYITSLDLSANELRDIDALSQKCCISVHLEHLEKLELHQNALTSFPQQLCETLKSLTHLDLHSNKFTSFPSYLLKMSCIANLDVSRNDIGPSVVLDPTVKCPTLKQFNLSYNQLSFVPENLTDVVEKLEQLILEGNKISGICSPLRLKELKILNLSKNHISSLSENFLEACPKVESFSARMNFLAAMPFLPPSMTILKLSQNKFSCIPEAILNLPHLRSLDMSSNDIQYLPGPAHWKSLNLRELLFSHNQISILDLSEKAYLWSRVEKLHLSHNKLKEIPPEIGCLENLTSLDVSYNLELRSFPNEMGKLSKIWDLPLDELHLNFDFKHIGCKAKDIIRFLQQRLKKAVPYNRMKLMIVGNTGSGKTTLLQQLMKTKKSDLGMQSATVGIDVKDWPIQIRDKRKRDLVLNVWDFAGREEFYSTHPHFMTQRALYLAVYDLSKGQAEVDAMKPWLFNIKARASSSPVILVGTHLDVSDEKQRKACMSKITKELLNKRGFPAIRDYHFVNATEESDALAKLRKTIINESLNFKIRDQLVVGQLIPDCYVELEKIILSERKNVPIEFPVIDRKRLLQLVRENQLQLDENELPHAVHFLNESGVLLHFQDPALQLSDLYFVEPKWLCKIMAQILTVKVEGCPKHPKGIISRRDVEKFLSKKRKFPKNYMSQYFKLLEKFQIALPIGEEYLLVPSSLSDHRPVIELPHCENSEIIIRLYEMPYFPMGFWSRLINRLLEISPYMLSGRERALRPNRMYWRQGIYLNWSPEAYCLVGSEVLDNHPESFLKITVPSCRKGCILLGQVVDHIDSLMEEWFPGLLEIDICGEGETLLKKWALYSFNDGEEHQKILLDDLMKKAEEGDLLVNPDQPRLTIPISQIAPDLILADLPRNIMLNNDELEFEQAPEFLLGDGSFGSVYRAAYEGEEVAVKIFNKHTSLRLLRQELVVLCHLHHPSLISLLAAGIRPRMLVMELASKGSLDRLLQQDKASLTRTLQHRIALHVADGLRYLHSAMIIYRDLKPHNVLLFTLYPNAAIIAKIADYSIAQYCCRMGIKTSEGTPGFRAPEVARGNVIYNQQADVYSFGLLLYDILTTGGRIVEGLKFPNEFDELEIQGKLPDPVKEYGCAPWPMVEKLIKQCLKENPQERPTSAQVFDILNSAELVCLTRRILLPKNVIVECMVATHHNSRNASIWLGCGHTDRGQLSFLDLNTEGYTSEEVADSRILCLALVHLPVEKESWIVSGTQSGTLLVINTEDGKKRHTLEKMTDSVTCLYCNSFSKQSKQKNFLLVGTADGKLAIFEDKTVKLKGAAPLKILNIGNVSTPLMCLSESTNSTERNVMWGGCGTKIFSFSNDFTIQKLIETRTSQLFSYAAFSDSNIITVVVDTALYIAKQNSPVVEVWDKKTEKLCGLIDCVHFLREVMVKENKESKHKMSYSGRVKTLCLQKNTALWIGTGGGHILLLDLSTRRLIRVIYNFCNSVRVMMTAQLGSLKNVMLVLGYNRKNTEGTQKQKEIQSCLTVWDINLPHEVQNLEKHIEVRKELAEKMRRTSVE

Structure (SMILES)	IC50 [1] [nM]	also measured
O=C(Nc1ccc2[nH]nc(-c3ccoc3)c2c1)c1cnc2cnccc2c1	173	
N#Cc1ccc2c(c1)CC[C@@H]2Nc1ccc2[nH]nc(-c3ccoc3)c2c1	11	efflux ratio (MDR1 (P-gp)): 1.8; IC50 [2]: 96 nM; IC50 [3]: 57 nM; half-life at 0.5 µM [4]: 25 min; half-life at 0.5 µM [5]: 54 min
O=C(Nc1ccc2[nH]nc(-c3ccoc3)c2c1)c1nc2cnccc2s1	74	
N#Cc1ccc2c(c1)[C@@H](Nc1ccc3[nH]nc(Br)c3c1)CCC2	14	
Cn1ncc2cc(C(=O)Nc3ccc4[nH]nc(-c5ccoc5)c4c3)ccc21	13	efflux ratio (MDR1 (P-gp)): 9.2
N#Cc1ccc2c(c1)C(=O)N(c1ccc3[nH]nc(C4CC4)c3c1)C2=O	> 7600	
N#Cc1ccc(C(=O)Nc2ccc3[nH]nc(-c4ccoc4)c3c2)cc1	41	efflux ratio (MDR1 (P-gp)): 1.9
CC1=C(C(=O)Nc2ccc3[nH]ncc3c2)Cn2nnnc2N1C	35	
Cc1n[nH]c2ccc(O[C@H]3CCCc4cc(C#N)ccc43)cc12	2.8	efflux ratio (MDR1 (P-gp)): 1.3; IC50 [2]: 137 nM; IC50 [3]: 62 nM; half-life at 0.5 µM [4]: 35 min; half-life at 0.5 µM [5]: 18 min
N#Cc1ccc(C(=O)Nc2ccc3[nH]nc(C4CC4)c3c2)cc1	790	
N#Cc1ccc2c(c1)CCC[C@@H]2Oc1ccc2[nH]nc(-c3cnco3)c2c1	< 0.2	efflux ratio (MDR1 (P-gp)): 1.7; IC50 [2]: 6.2 nM; IC50 [3]: 3.5 nM; half-life at 0.5 µM [4]: 28 min; half-life at 0.5 µM [5]: 42 min
COCc1ccc(C(=O)Nc2ccc3[nH]nc(-c4ccoc4)c3c2)cc1	98	
N#Cc1ccc2c(c1)CCN(c1ccc3[nH]nc(C4CC4)c3c1)C2=O	5500	
Cc1n[nH]c2ccc(O[C@@H]3CCc4cc(C#N)ccc43)cc12	62	
N#Cc1ccc2c(c1)CC[C@@H]2Oc1ccc2[nH]nc(-c3cnco3)c2c1	0.4	efflux ratio (MDR1 (P-gp)): 2.2; IC50 [2]: 27 nM; IC50 [3]: 8.3 nM; half-life at 0.5 µM [4]: 61 min; half-life at 0.5 µM [5]: 53 min
N#Cc1ccc2c(c1)CC[C@H]2Nc1ccc2[nH]nc(-c3ccoc3)c2c1	63	
CS(=O)(=O)c1ccc(C(=O)Nc2ccc3[nH]nc(-c4ccoc4)c3c2)cc1	49	
N#Cc1ccc2c(c1)CN(c1ccc3[nH]nc(C4CC4)c3c1)C2=O	615	
CN(C)Cc1ccc(C(=O)Nc2ccc3[nH]nc(-c4ccoc4)c3c2)cc1	250	
N#Cc1ccc2c(c1)CCC[C@@H]2Nc1ccc2[nH]nc(-c3cnco3)c2c1	0.9	
N#Cc1ccc2c(c1)CCC[C@@H]2Oc1ccc2[nH]nc(-c3ccnc(N4CCOCC4)c3)c2c1	1.4	
CC1=C(C(=O)Nc2ccc3[nH]nc(-c4ccccc4)c3c2)C(C)(C)n2nnnc2N1C	3	
Cc1n[nH]c2ccc(O[C@H]3CCc4cc(C#N)ccc43)cc12	14	
